23 molecules from patent publication US11504382B2, “Tricyclic inhibitors of Hepatitis B virus” (Antios Therapeutics, Inc., priority 2018, dated 2022) can be followed below.

The subject of this experiment is HBV. The experiment is described as follows: HBV inhibition assay in HepAD38 cells (extracellular HBV DNA by direct qPCR). The note with it: Hepatitis B virus, 96 hours; for inhibition at 0.1 µM / inhibition at 0.05 µM: relative to non-treated reference, read-out: Anti HBV Activity (conc μM); for EC50: 8-point dose-response curve, read-out: HBV inh EC50. In kind it is cell-based, Hepatitis B virus. (In general: In qPCR the cycle at which signal appears reflects the starting amount.)

On to `Cc1cc(NC(=O)c2c3c(cn2C)S(=O)(=O)NC2CN(C(=O)c4ccc(O)nc4)CC2CO3)ccc1F` (stereo not drawn) [Example E53, cis-N-(4-fluoro-3-methylphenyl)-2-(6-hydroxynicotinoyl)-7-methyl-2,3,3a,4,10,10a-hexahydro-1H,7H-dipyrrolo[3,4-b:3′,4′-f][1,4,5]oxathiazocine-8-carboxamide 5,5-dioxide], for which the inhibition at 0.1 µM was below 50%.

Turning to `Cc1cc(NC(=O)c2c3c(cn2C)S(=O)(=O)NC2CN(C(=O)c4cccnc4)CC2CO3)ccc1F` (stereo not drawn) [Example E54, cis-N-(4-fluoro-3-methylphenyl)-7-methyl-2-nicotinoyl-2,3,3a,4,10,10a-hexahydro-1H,7H-dipyrrolo[3,4-b:3′,4′-f][1,4,5]oxathiazocine-8-carboxamide 5,5-dioxide], the inhibition at 0.1 µM was above 50%.

`Cn1cc2c(c1C(=O)Nc1cc(F)c(F)c(F)c1)OCC1CN(C(=O)c3c[nH]c(=O)cn3)CC1NS2(=O)=O` (stereo not drawn) [Example E56, cis-7-methyl-2-(5-oxo-4,5-dihydropyrazine-2-carbonyl)-N-(3,4,5-trifluorophenyl)-2,3,3a,4,10,10a-hexahydro-1H,7H-dipyrrolo[3,4-b:3′,4′-f][1,4,5]oxathiazocine-8-carboxamide 5,5-dioxide]: the inhibition at 0.1 µM is below 50%.

Take `Cn1cc(C(=O)N2CC3COc4c(cn(C)c4C(=O)Nc4cc(F)c(F)c(F)c4)S(=O)(=O)NC3C2)cn1` (stereo not drawn) [Example E57, cis-7-methyl-2-(1-methyl-1H-pyrazole-4-carbonyl)-N-(3,4,5-trifluorophenyl)-2,3,3a,4,10,10a-hexahydro-1H,7H-dipyrrolo[3,4-b:3′,4′-f][1,4,5]oxathiazocine-8-carboxamide 5,5-dioxide]: the inhibition at 0.1 µM was below 50%.

As to `Cn1cc2c(c1C(=O)Nc1cc(F)c(F)c(F)c1)OCC1CN(C(=O)c3nccs3)CC1NS2(=O)=O` (stereo not drawn) [Example E58, cis-7-methyl-2-(thiazole-2-carbonyl)-N-(3,4,5-trifluorophenyl)-2,3,3a,4,10,10a-hexahydro-1H,7H-dipyrrolo[3,4-b:3′,4′-f][1,4,5]oxathiazocine-8-carboxamide 5,5-dioxide], the inhibition at 0.05 µM was above 50% and the EC50 (usually the concentration that produces a half-maximal response) is below 1000 nM.

As to `Cn1cc2c(c1C(=O)Nc1cc(F)c(F)c(F)c1)OCC1CN(c3nccc(=O)[nH]3)CC1NS2(=O)=O` (stereo not drawn) [Example E59, cis-7-methyl-2-(6-oxo-1,6-dihydropyrimidin-2-yl)-N-(3,4,5-trifluorophenyl)-2,3,3a,4,10,10a-hexahydro-1H,7H-dipyrrolo[3,4-b:3′,4′-f][1,4,5]oxathiazocine-8-carboxamide 5,5-dioxide], the half-maximal effective concentration (EC50) was above 1000 nM.

For the molecule `Cn1cc2c(c1C(=O)Nc1cc(F)c(F)c(F)c1)OCC1CN(C(=O)c3nonc3N)CC1NS2(=O)=O` (stereo not drawn) [Example E60, cis-2-(4-amino-1,2,5-oxadiazole-3-carbonyl)-7-methyl-N-(3,4,5-trifluorophenyl)-2,3,3a,4,10,10a-hexahydro-1H,7H-dipyrrolo[3,4-b:3′,4′-f][1,4,5]oxathiazocine-8-carboxamide 5,5-dioxide], the EC50 is below 1000 nM.

In the case of `Cc1cc(NC(=O)c2c3c(cn2C)S(=O)(=O)NC2CN(C(=O)c4nonc4N)CC2CO3)ccc1F` (stereo not drawn) [Example E61, cis-2-(4-amino-1,2,5-oxadiazole-3-carbonyl)-N-(4-fluoro-3-methylphenyl)-7-methyl-2,3,3a,4,10,10a-hexahydro-1H,7H-dipyrrolo[3,4-b:3′,4′-f][1,4,5]oxathiazocine-8-carboxamide 5,5-dioxide], the EC50 is below 1000 nM.

`Cc1cc(NC(=O)c2c3c(cn2C)S(=O)(=O)NC2CN(C(=O)c4ncon4)CC2CO3)ccc1F` (stereo not drawn) [Example E63, cis-N-(4-fluoro-3-methylphenyl)-7-methyl-2-(1,2,4-oxadiazole-3-carbonyl)-2,3,3a,4,10,10a-hexahydro-1H,7H-dipyrrolo[3,4-b:3′,4′-f][1,4,5]oxathiazocine-8-carboxamide 5,5-dioxide]: the concentration for a half-maximal effect (EC50) was below 1000 nM.

Take `Cn1cc2c(c1C(=O)Nc1cc(F)c(F)c(F)c1)OCC1CN(C(=O)c3cnco3)CC1NS2(=O)=O` (stereo not drawn) [Example E64, cis-7-methyl-2-(oxazole-5-carbonyl)-N-(3,4,5-trifluorophenyl)-2,3,3a,4,10,10a-hexahydro-1H,7H-dipyrrolo[3,4-b:3′,4′-f][1,4,5]oxathiazocine-8-carboxamide 5,5-dioxide]: the EC50 is below 1000 nM.

With `Cn1cc2c(c1C(=O)Nc1cc(F)c(F)c(F)c1)OCC1CN(C(=O)c3cocn3)CC1NS2(=O)=O` (stereo not drawn) [Example E65, cis-7-methyl-2-(oxazole-4-carbonyl)-N-(3,4,5-trifluorophenyl)-2,3,3a,4,10,10a-hexahydro-1H,7H-dipyrrolo[3,4-b:3′,4′-f][1,4,5]oxathiazocine-8-carboxamide 5,5-dioxide], the EC50 was below 1000 nM.

Regarding `Cc1cc(NC(=O)c2c3c(cn2C)S(=O)(=O)NC2CN(C(=O)C4(C)COC4)CC2CO3)ccc1F` (stereo not drawn) [Example E66, cis-N-(4-fluoro-3-methylphenyl)-7-methyl-2-(3-methyloxetane-3-carbonyl)-2,3,3a,4,10,10a-hexahydro-1H,7H-dipyrrolo[3,4-b:3′,4′-f][1,4,5]oxathiazocine-8-carboxamide 5,5-dioxide], the EC50 was below 1000 nM.

Consider `CC(=O)OCC(=O)N1CC2COc3c(cn(C)c3C(=O)Nc3cc(F)c(F)c(F)c3)S(=O)(=O)NC2C1` (stereo not drawn) [Example E70, cis-2-(7-methyl-5,5-dioxido-8-((3,4,5-trifluorophenyl)carbamoyl)-3a,4,10,10a-tetrahydro-1H,7H-dipyrrolo[3,4-b:3′,4′-f][1,4,5]oxathiazocin-2(3H)-yl)-2-oxoethyl acetate], for which the inhibition at 0.1 µM is below 50%.

Take `Cn1cc2c(c1C(=O)Nc1cc(F)c(F)c(F)c1)OCC1CN(C(=O)CO)CC1NS2(=O)=O` (stereo not drawn) [Example E71, cis-2-(2-hydroxyacetyl)-7-methyl-N-(3,4,5-trifluorophenyl)-2,3,3a,4,10,10a-hexahydro-1H,7H-dipyrrolo[3,4-b:3′,4′-f][1,4,5]oxathiazocine-8-carboxamide 5,5-dioxide]: the inhibition at 0.1 µM is below 50%.

Turning to `Cn1cc2c(c1C(=O)Nc1cc(F)c(F)c(F)c1)OCC1CN(CC(F)(F)F)CC1NS2(=O)=O` (stereo not drawn) [Example E73, cis-7-methyl-2-(2,2,2-trifluoroethyl)-N-(3,4,5-trifluorophenyl)-2,3,3a,4,10,10a-hexahydro-1H,7H-dipyrrolo[3,4-b:3′,4′-f][1,4,5]oxathiazocine-8-carboxamide 5,5-dioxide], the inhibition at 0.1 µM was above 50%.

For the molecule `Cn1cc2c(c1C(=O)Nc1cc(F)c(F)c(F)c1)OCC1CN(CC#N)CC1NS2(=O)=O` (stereo not drawn) [Example E74, cis-2-(cyanomethyl)-7-methyl-N-(3,4,5-trifluorophenyl)-2,3,3a,4,10,10a-hexahydro-1H,7H-dipyrrolo[3,4-b:3′,4′-f][1,4,5]oxathiazocine-8-carboxamide 5,5-dioxide], the inhibition at 0.05 µM was above 50% and the EC50 is below 1000 nM.

Consider `Cn1cc2c(c1C(=O)Nc1cc(F)c(F)c(F)c1)OCC1CN(c3ncc(F)cn3)CC1NS2(=O)=O` (stereo not drawn) [Example E75, cis-2-(5-fluoropyrimidin-2-yl)-7-methyl-N-(3,4,5-trifluorophenyl)-2,3,3a,4,10,10a-hexahydro-1H,7H-dipyrrolo[3,4-b:3′,4′-f][1,4,5]oxathiazocine-8-carboxamide 5,5-dioxide], for which the inhibition at 0.05 µM is above 50% and the EC50 is below 1000 nM.

Regarding `Cc1cc(NC(=O)c2c3c(cn2C)S(=O)(=O)NC2CN(c4ccnc(Cl)c4)CC2CO3)ccc1F` (stereo not drawn) [Example E76, cis-2-(2-chloropyridin-4-yl)-N-(4-fluoro-3-methylphenyl)-7-methyl-2,3,3a,4,10,10a-hexahydro-1H,7H-dipyrrolo[3,4-b:3′,4′-f][1,4,5]oxathiazocine-8-carboxamide 5,5-dioxide], the inhibition at 0.05 µM was above 50% and the EC50 was below 1000 nM.

For the molecule `CCOC(=O)N1C[C@H]2C[C@@H]1COc1c(cn(C)c1C(=O)Nc1cc(F)c(F)c(F)c1)S(=O)(=O)N2` [Example E77, Ethyl (3R,6R)-10-methyl-9-((3,4,5-trifluorophenyl)carbamoyl)-3,4,6,7-tetrahydro-10H-3,6-methanopyrrolo[3,4-b][1,4,5,8]oxathiadiazecine-5(2H)-carboxylate 1,1-dioxide], the concentration giving a half-maximal response (EC50) was below 1000 nM.

As for `Cc1nnc(N2CC3COc4c(cn(C)c4C(=O)Nc4cc(F)c(F)c(F)c4)S(=O)(=O)NC3C2)o1` (stereo not drawn) [Example E78, cis-7-methyl-2-(5-methyl-1,3,4-oxadiazol-2-yl)-N-(3,4,5-trifluorophenyl)-2,3,3a,4,10,10a-hexahydro-1H,7H-dipyrrolo[3,4-b:3′,4′-f][1,4,5]oxathiazocine-8-carboxamide 5,5-dioxide], the inhibition at 0.05 µM was above 50% and the EC50 was below 1000 nM.

Regarding `Cc1cc(NC(=O)c2c3c(cn2C)S(=O)(=O)NC2CN(CC(F)(F)F)CC2CO3)ccc1F` (stereo not drawn) [Example E80, cis-N-(4-fluoro-3-methylphenyl)-7-methyl-2-(2,2,2-trifluoroethyl)-2,3,3a,4,10,10a-hexahydro-1H,7H-dipyrrolo[3,4-b:3′,4′-f][1,4,5]oxathiazocine-8-carboxamide 5,5-dioxide], the inhibition at 0.1 µM was above 50%.

In the case of `Cn1cc2c(c1C(=O)Nc1cc(F)c(F)c(F)c1)OCC1CN(c3ccccn3)CC1NS2(=O)=O` (stereo not drawn) [Example E81, cis-7-methyl-2-(pyridin-2-yl)-N-(3,4,5-trifluorophenyl)-2,3,3a,4,10,10a-hexahydro-1H,7H-dipyrrolo[3,4-b:3′,4′-f][1,4,5]oxathiazocine-8-carboxamide 5,5-dioxide], the inhibition at 0.1 µM is above 50%.

Regarding `Cn1cc2c(c1C(=O)Nc1cc(F)c(F)c(F)c1)OCC1CN(c3cnccn3)CC1NS2(=O)=O` (stereo not drawn) [Example E82, cis-7-methyl-2-(pyrazin-2-yl)-N-(3,4,5-trifluorophenyl)-2,3,3a,4,10,10a-hexahydro-1H,7H-dipyrrolo[3,4-b:3′,4′-f][1,4,5]oxathiazocine-8-carboxamide 5,5-dioxide], the inhibition at 0.1 µM is above 50%.
